Reference: patent US9895346B2, “Applications of substituent benzyloxy group containing ether compounds for preparing antitumor drugs” (Sinochem Corporation, priority 2013, dated 2018)

Experiments:
[1] = test system: lung cancer cell line H520; test: In vitro cell inhibition assay (crystal violet), lung cancer H520; type: cell-based, human
In short: (§1)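 1000-3000 cells per well grown 24 h at 37 °C, then exposed to compound for one week (vehicle ≤0.5% of volume). Cells formalin-fixed and stained with 0.1% crystal violet. Inhibition rate = remaining cells in treated wells / remaining cells in untreated control × 100%.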

[2] = test system: prostate cancer cell line PC-3; test: In vitro cell inhibition assay (crystal violet), prostate cancer PC-3; type: cell-based, human
From the text: (§2) In vitro Cell inhibition assay is as follows:
(§3) The human cancer cell lines used for this assay were bladder cancer J82, T24, prostate cancer LNCap, PC-3, lung cancer A549, H157, H460, H520, colon cancer HCT8, HCT116, RkO, and leukemia HL-60, etc.
(§4) In vitro cell culture technology was selected for the determination of inhibition rate bladder cancer cell lines J82 and T24, prostate cancer cell lines LNCap and PC-3, lung cancer cell lines A549, H157, H460 and H520. 1000 to 3000 cells were inoculated to 24-well plate, followed by addition of 1 mL culture medium well known to researchers in this field to each well, the cells were cultured in 5% incubator for 24 hours at 37° C., then the different concentration compounds and controls were added to each well. It should be noted that the added volume is not more than 0.5% of total volume. After completion of addition, the cells continued being cultured in incubator for one week, the culture medium was removed and washed by cold PBS of 1 mL once, and then fixed for 10 minutes at room temperature with 1% formalin, followed by wash with PBS of 1 mL. After fixation, stain was carried out with 0.1% crystal violet for 30 minutes. 0.1% crystal violet was recycled. The stained cells were washed gently with deionized water, dried at room temperature and kepted. The inhibition rate was calculated according to the foiling equation. The controls are Selumetinib (AZD6244), Gefitinib, Cisplatin. Inhibition rate=number of left cells each treatment/number of left cells of untreated control×100%

[3] = test system: colon cancer RkO; test: In vitro cell inhibition assay, colon cancer RkO; type: cell-based, human; conditions: Homo sapiens, read-out: Inhibition rate on human cancer cells
From the text: as §2, §3

[4] = test system: prostate cancer cell line LNCap; test: In vitro cell inhibition assay (crystal violet), prostate cancer LNCap; type: cell-based, human
From the text: as §2, §3, §4

[5] = test system: colon cancer HCT8; test: In vitro cell inhibition assay, colon cancer HCT8; type: cell-based, human; conditions: Homo sapiens, read-out: Inhibition rate on human cancer cells
From the text: as §2, §3

[6] = test system: colon cancer HCT116; test: In vitro cell inhibition assay, colon cancer HCT116; type: cell-based, human; conditions: Homo sapiens, read-out: Inhibition rate on human cancer cells
From the text: as §2, §3

[7] = test system: lung cancer cell line H460; test: In vitro cell inhibition assay (crystal violet), lung cancer H460; type: cell-based, human
In short: as §1

[8] = test system: bladder cancer cell line T24; test: In vitro cell inhibition assay (crystal violet), bladder cancer T24; type: cell-based, human
From the text: as §2, §3, §4

[9] = test system: lung cancer cell line A549; test: In vitro cell inhibition assay (crystal violet), lung cancer A549; type: cell-based, human
In short: as §1

[10] = test system: bladder cancer cell line J82; test: In vitro cell inhibition assay (crystal violet), bladder cancer J82; type: cell-based, human
From the text: as §2, §3, §4

[11] = test system: lung cancer cell line H157; test: In vitro cell inhibition assay (crystal violet), lung cancer H157; type: cell-based, human
From the text: as §2, §3, §4

[12] = test system: human leukemia HL-60 cells; test: Proliferation inhibition of human leukemia HL-60 cells, MTT method; type: cell-based; conditions: 48 h incubation, OPTI-MEM medium
Experimental: The inhibition rate of human leukemia HL-60 cells was evaluated by regular MTT method. The human leukemia HL-60 cells were picked up from cell incubator, after washed for twice using PBS, cells were digested by 0.25% trypsin, and then add medium to terminate the digestion. After cells were collected using centrifuge and re-suspended, counting cells under inverted microscope and adding medium to make a density which was 5×10^4 cells/mL. After 100 μL aliquots were added to each well of 96-well microtiter plates, cells were cultured in 5% incubator for overnight at 37° C., then the different concentration compounds were added to each well. After incubation for 48 h, MTT solution was added to each well and plates were then incubated for 4 h. The MTT tetrazolium was reduced to formazan by living cells. Then the formazan crystals were dissolved though adding DMSO to each well. The absorbance was read at 570 nm with a microplate reader.

`Cn1cnc2c(F)c(Nc3ccc(Br)cc3Cl)c(C(=O)NOCCO)cc21` [Selumetinib, reference compound] was tested, and the inhibition at 5 µM ([1]; Homo sapiens, NCI-H520, H520, 5.0 μM, read-out: Inhibition rate on human cancer cells) was 20%, the inhibition at 5 µM ([2]; Homo sapiens, PC-3, 5.0 μM, read-out: Inhibition rate on human cancer cells) was 0% and the inhibition at 0.25 µM ([3]; 0.25 μM) was 30%. The inhibition at 0.5 µM ([3]; 0.5 μM) was 80%, the inhibition at 1 µM ([3]; 1.0 μM) was 85% and the inhibition at 2.5 µM ([3]; 2.5 μM) was 90%. The inhibition at 5 µM ([3]; 5.0 μM) was 95%, the inhibition at 5 µM ([4]; Homo sapiens, 5.0 μM, read-out: Inhibition rate on human cancer cells) was 20% and the inhibition at 1 µM ([5]; HCT 8, 1.0 μM) was 20%. The inhibition at 2.5 µM ([5]; HCT 8, 2.5 μM) was 40%, the inhibition at 5 µM ([5]; HCT 8, 5.0 μM) was 50% and the inhibition at 0.25 µM ([6]; HCT 116, 0.25 μM) was 50%. The inhibition at 0.5 µM ([6]; HCT 116, 0.5 μM) was 75%, the inhibition at 1 µM ([6]; HCT 116, 1.0 μM) was 80% and the inhibition at 2.5 µM ([6]; HCT 116, 2.5 μM) was 85%. For the same molecule, the inhibition at 5 µM ([6]; HCT 116, 5.0 μM) was 90%, the inhibition at 0.25 µM ([7]; Homo sapiens, NCI-H460, H460, 0.25 μM, read-out: Inhibition rate on human cancer cells) was 0% and the inhibition at 0.5 µM ([7]; Homo sapiens, NCI-H460, H460, 0.5 μM, read-out: Inhibition rate on human cancer cells) was 0%. It also gave an inhibition at 1 µM ([7]; Homo sapiens, NCI-H460, H460, 1.0 μM, read-out: Inhibition rate on human cancer cells) of 0%, an inhibition at 2.5 µM ([7]; Homo sapiens, NCI-H460, H460, 2.5 μM, read-out: Inhibition rate on human cancer cells) of 0% and an inhibition at 5 µM ([7]; Homo sapiens, NCI-H460, H460, 5.0 μM, read-out: Inhibition rate on human cancer cells) of 60%. For the same molecule, the inhibition at 5 µM ([8]; Homo sapiens, T24, 5.0 μM, read-out: Inhibition rate on human cancer cells) was 70%, the inhibition at 0.25 µM ([9]; Homo sapiens, A549, 0.25 μM, read-out: Inhibition rate on human cancer cells) was 0% and the inhibition at 0.5 µM ([9]; Homo sapiens, A549, 0.5 μM, read-out: Inhibition rate on human cancer cells) was 0%. The inhibition at 1 µM ([9]; Homo sapiens, A549, 1.0 μM, read-out: Inhibition rate on human cancer cells) was 0%, the inhibition at 2.5 µM ([9]; Homo sapiens, A549, 2.5 μM, read-out: Inhibition rate on human cancer cells) was 0% and the inhibition at 5 µM ([9]; Homo sapiens, A549, 5.0 μM, read-out: Inhibition rate on human cancer cells) was 10%. It also gave an inhibition at 5 µM ([10]; Homo sapiens, J82, 5.0 μM, read-out: Inhibition rate on human cancer cells) of 70% and an inhibition at 5 µM ([11]; Homo sapiens, NCI-H157, H157, 5.0 μM, read-out: Inhibition rate on human cancer cells) of 20%.

For jiaxiangjunzhi [Compound 28-5], the “Inhibition rate on human cancer cells” value ([1]; H520, 0.25 μM) was 70%, the “Inhibition rate on human cancer cells” value ([1]; H520, 0.5 μM) was 80% and the “Inhibition rate on human cancer cells” value ([1]; H520, 1.0 μM) was 90%. The “Inhibition rate on human cancer cells” value ([1]; H520, 2.5 μM) was 100%, the “Inhibition rate on human cancer cells” value ([1]; H520, 5.0 μM) was 100% and the “Inhibition rate on human cancer cells” value ([2]; PC-3, 1.0 μM) was 100%. For the same molecule, the “Inhibition rate on human cancer cells” value ([2]; PC-3, 2.5 μM) was 100%, the “Inhibition rate on human cancer cells” value ([2]; PC-3, 5.0 μM) was 100% and the “Proliferation inhibitory effect on human leukemia HL-60 cell (%)” value (from here on “Proliferation inhibitory effect … (%)”) ([12]; concentration 1 μM) was 31.7%. For the same molecule, the “Proliferation inhibitory effect … (%)” value ([12]; concentration 10 μM) was 59.3%, the “Proliferation inhibitory effect … (%)” value ([12]; concentration 100 μM) was 73.8% and the “Inhibition rate on human cancer cells” value ([4]; 1.0 μM) was 100%. For the same molecule, the “Inhibition rate on human cancer cells” value ([4]; 2.5 μM) was 100%, the “Inhibition rate on human cancer cells” value ([4]; 5.0 μM) was 100% and the “Inhibition rate on human cancer cells” value ([7]; H460, 0.5 μM) was 100%. For the same molecule, the “Inhibition rate on human cancer cells” value ([7]; H460, 1.0 μM) was 100%, the “Inhibition rate on human cancer cells” value ([7]; H460, 2.5 μM) was 100% and the “Inhibition rate on human cancer cells” value ([7]; H460, 5.0 μM) was 100%. The “Inhibition rate on human cancer cells” value ([8]; T24, 0.25 μM) was 100%, the “Inhibition rate on human cancer cells” value ([8]; T24, 0.5 μM) was 100% and the “Inhibition rate on human cancer cells” value ([8]; T24, 1.0 μM) was 100%. The “Inhibition rate on human cancer cells” value ([8]; T24, 2.5 μM) was 100%, the “Inhibition rate on human cancer cells” value ([8]; T24, 5.0 μM) was 100% and the “Inhibition rate on human cancer cells” value ([9]; A549, 1.0 μM) was 80%. The “Inhibition rate on human cancer cells” value ([9]; A549, 2.5 μM) was 100%, the “Inhibition rate on human cancer cells” value ([9]; A549, 5.0 μM) was 100% and the “Inhibition rate on human cancer cells” value ([10]; J82, 1.0 μM) was 80%. For the same molecule, the “Inhibition rate on human cancer cells” value ([10]; J82, 2.5 μM) was 100%, the “Inhibition rate on human cancer cells” value ([10]; J82, 5.0 μM) was 100% and the “Inhibition rate on human cancer cells” value ([11]; H157, 0.5 μM) was 100%. For the same molecule, the “Inhibition rate on human cancer cells” value ([11]; H157, 1.0 μM) was 100%, the “Inhibition rate on human cancer cells” value ([11]; H157, 2.5 μM) was 100% and the “Inhibition rate on human cancer cells” value ([11]; H157, 5.0 μM) was 100%.
